Measurements: paper PMC2248166, “Quantitative peptide binding motifs for 19 human and mouse MHC class I molecules derived using positional scanning combinatorial peptide libraries” (Immunome Research, 2008)
Where a SMILES comes first, the peptide text is derived from it.

molecular target: HLA B*0801 (Homo sapiens, UniProt P01889, A93T/A95T/D138N/E176V/E187T/K202T/Q94N/R180D/S35A/V36M/Y33D/Y91F); assay: biochemical; assay type: binding

Going from `CC[C@H](C)[C@H](NC(=O)[C@H](Cc1ccc(O)cc1)NC(=O)[C@@H](NC(=O)[C@H](CCCCN)NC(=O)[C@H](CCCCN)NC(=O)[C@H](Cc1ccccc1)NC(=O)[C@H](CCCNC(=N)N)NC(=O)[C@@H](N)CO)C(C)C)C(=O)N[C@@H](CC(C)C)C(=O)O` [3102.0579] (H-SRFKKVYIL-OH) to `CC[C@H](C)[C@H](NC(=O)[C@H](C)NC(=O)[C@H](CC(C)C)NC(=O)[C@@H](NC(=O)[C@H](CCCCN)NC(=O)[C@H](CCCNC(=N)N)NC(=O)[C@H](CCCCN)NC(=O)[C@H](CC(N)=O)NC(=O)[C@@H](N)CO)C(C)C)C(=O)O` [3102.0561] (H-SNKRKVLAI-OH), the IC50 falls from 76 nM to 1.9 nM (40-fold).

First: CC(C)C[C@H](NC(=O)[C@@H](NC(=O)[C@H](CO)NC(=O)[C@H](Cc1ccccc1)NC(=O)[C@H](CC(C)C)NC(=O)[C@H](CO)NC(=O)[C@H](CC(C)C)NC(=O)[C@H](CC(C)C)NC(=O)[C@@H](N)Cc1ccc(O)cc1)[C@@H](C)O)C(=O)O [3102.0750] (H-YLLSLFSTL-OH)
Second: CC[C@H](C)[C@H](NC(=O)[C@@H](N)Cc1ccccc1)C(=O)N[C@@H](C)C(=O)N[C@@H](CCCCN)C(=O)N[C@@H](Cc1c[nH]cn1)C(=O)N[C@@H](Cc1ccccc1)C(=O)N[C@@H](CC(C)C)C(=O)N[C@@H](CCC(=O)O)C(=O)N[C@@H](CC(C)C)C(=O)O [3102.0900] (H-FIAKHFLEL-OH)
The IC50 of the first is 3.1-fold higher: 4 nM for the first, 1.3 nM for the second.

Going from `CC[C@H](C)[C@H](NC(=O)[C@H](CC(C)C)NC(=O)[C@@H](N)CC(N)=O)C(=O)N[C@H](C(=O)N[C@@H](Cc1c[nH]cn1)C(=O)N[C@H](C(=O)N[C@@H](C)C(=O)N[C@@H](C)C(=O)N[C@@H](CC(C)C)C(=O)O)[C@@H](C)O)[C@@H](C)CC` [3102.0785] (H-NLIIHTAAL-OH) to `CC[C@H](C)[C@H](NC(=O)[C@@H](N)CO)C(=O)N[C@@H](CC(N)=O)C(=O)N[C@H](C(=O)N[C@@H](CCCCN)C(=O)N[C@@H](Cc1c[nH]cn1)C(=O)N[C@H](C(=O)N[C@@H](CO)C(=O)N[C@H](C(=O)O)C(C)C)[C@@H](C)O)C(C)C` [3102.0630] (H-SINVKHTSV-OH), the IC50 rises from 1.6 nM to 13 nM (8.1-fold).

Going from `CC(C)C[C@H](NC(=O)[C@H](CCCNC(=N)N)NC(=O)[C@@H](NC(=O)[C@H](Cc1ccccc1)NC(=O)[C@H](Cc1c[nH]cn1)NC(=O)CNC(=O)[C@H](CCCCN)NC(=O)[C@H](CC(N)=O)NC(=O)[C@@H](N)Cc1ccccc1)[C@@H](C)O)C(=O)O` [3102.0610] (H-FNKGHFTRL-OH) to `CC[C@H](C)[C@H](NC(=O)[C@@H](N)Cc1ccccc1)C(=O)N[C@@H](CCCCN)C(=O)N[C@@H](CCC(N)=O)C(=O)NCC(=O)N[C@@H](Cc1ccccc1)C(=O)N[C@@H](CC(N)=O)C(=O)N[C@@H](CC(N)=O)C(=O)N[C@@H](CC(C)C)C(=O)O` [3102.0781] (H-FIKQGFNNL-OH), the IC50 falls from 16 nM to 0.91 nM (18-fold).

First: C[C@H](NC(=O)[C@H](CCCCN)NC(=O)[C@H](Cc1ccccc1)NC(=O)[C@H](CCCCN)NC(=O)[C@H](CC(=O)O)NC(=O)[C@H](CCCNC(=N)N)NC(=O)[C@H](CC(N)=O)NC(=O)[C@@H](N)Cc1ccc(O)cc1)C(=O)N[C@@H](Cc1ccccc1)C(=O)O [3102.0564] (H-YNRDKFKAF-OH)
Second: CC(C)C[C@H](NC(=O)[C@H](Cc1ccccc1)NC(=O)[C@H](C)NC(=O)[C@H](Cc1ccccc1)NC(=O)[C@H](CCCNC(=N)N)NC(=O)[C@H](Cc1ccc(O)cc1)NC(=O)[C@H](CCCNC(=N)N)NC(=O)[C@H](CC(N)=O)NC(=O)[C@@H](N)CC(N)=O)C(=O)O [3102.0568] (H-NNRYRFAFL-OH)
The IC50 of the first is 1.6-fold lower: 20 nM for the first, 31 nM for the second. The first is the more potent here.

Compared with `CC[C@H](C)[C@H](NC(=O)[C@H](CO)NC(=O)CNC(=O)[C@H](CCCCN)NC(=O)[C@H](CCCNC(=N)N)NC(=O)[C@H](CC(C)C)NC(=O)[C@H](CCCNC(=N)N)NC(=O)[C@H](CCCNC(=N)N)NC(=O)[C@@H](N)Cc1ccccc1)C(=O)O` [3102.0773] (H-FRRLRKGSI-OH), `CC(C)C[C@H](NC(=O)[C@H](CO)NC(=O)[C@H](Cc1ccccc1)NC(=O)[C@@H]1CCCN1C(=O)[C@H](CCCNC(=N)N)NC(=O)[C@H](CCCNC(=N)N)NC(=O)[C@H](CC(C)C)NC(=O)[C@H](CC(C)C)NC(=O)[C@@H](N)CCCCN)C(=O)O` [3102.0529] (H-KLLRRPFSL-OH) is 8.3-fold lower in IC50: 3 nM for the first, 0.36 nM for the second. The second is the more potent here.

`CSCC[C@H](NC(=O)CNC(=O)[C@@H](N)CO)C(=O)N[C@H](C(=O)N[C@@H](Cc1ccccc1)C(=O)N[C@H](C(=O)N[C@@H](CO)C(=O)N1CCC[C@H]1C(=O)N[C@H](C(=O)O)C(C)C)[C@@H](C)O)C(C)C` [3102.0762] (H-SGMVFTSPV-OH) and `CSCC[C@H](NC(=O)[C@H](Cc1ccccc1)NC(=O)[C@H](CCSC)NC(=O)[C@@H](N)CO)C(=O)N[C@@H](CO)C(=O)N[C@@H](CC(C)C)C(=O)N[C@@H](CC(C)C)C(=O)N1CCC[C@H]1C(=O)N[C@@H](C)C(=O)O` [3102.0656] (H-SMFMSLLPA-OH) are within 1.5-fold of each other in IC50: 77 nM for the first, 56 nM for the second.

First: CC[C@H](C)[C@H](NC(=O)[C@H](CC(C)C)NC(=O)[C@H](Cc1c[nH]cn1)NC(=O)[C@H](CCCCN)NC(=O)[C@H](Cc1ccc(O)cc1)NC(=O)[C@@H](NC(=O)[C@@H]1CCCN1C(=O)[C@@H](N)CCSC)[C@@H](C)O)C(=O)N[C@@H](CCSC)C(=O)O [3102.0727] (H-MPTYKHLIM-OH)
Second: CC[C@H](C)[C@H](NC(=O)[C@@H]1CCCN1C(=O)[C@@H](NC(=O)[C@H](Cc1c[nH]cn1)NC(=O)[C@H](Cc1ccc(O)cc1)NC(=O)[C@H](CCCCN)NC(=O)[C@H](CCCNC(=N)N)NC(=O)[C@@H](N)Cc1ccc(O)cc1)C(C)C)C(=O)N[C@@H](CCSC)C(=O)O [3102.0573] (H-YRKYHVPIM-OH)
The IC50 of the first is 480-fold lower: 0.13 nM for the first, 62 nM for the second.

Compared with `CSCC[C@H](NC(=O)[C@H](CS)NC(=O)[C@H](CCCNC(=N)N)NC(=O)[C@H](Cc1ccc(O)cc1)NC(=O)[C@H](CCCCN)NC(=O)[C@H](CCCCN)NC(=O)[C@@H](N)CC(N)=O)C(=O)N[C@@H](C)C(=O)N[C@@H](CC(C)C)C(=O)O` [3102.0619] (H-NKKYRCMAL-OH), `CC(C)[C@H](NC(=O)[C@H](CC(N)=O)NC(=O)[C@H](C)NC(=O)[C@H](Cc1ccccc1)NC(=O)[C@H](CCCCN)NC(=O)[C@H](CCCCN)NC(=O)[C@H](Cc1c[nH]cn1)NC(=O)[C@H](CCCNC(=N)N)NC(=O)[C@@H](N)CC(N)=O)C(=O)O` [3102.0572] (H-NRHKKFANV-OH) is 19-fold higher in IC50: 1.9 nM for the first, 36 nM for the second. The first is the more potent here.

Compared with `CC(C)C[C@H](NC(=O)[C@@H](N)Cc1ccc(O)cc1)C(=O)N[C@@H](CCCNC(=N)N)C(=O)N[C@H](C(=O)N[C@@H](CCCCN)C(=O)N1CCC[C@H]1C(=O)N[C@@H](C)C(=O)N[C@@H](CO)C(=O)N[C@@H](C)C(=O)O)[C@@H](C)O` [3102.0686] (H-YLRTKPASA-OH), `CC[C@H](C)[C@H](NC(=O)[C@H](CCSC)NC(=O)[C@H](CC(C)C)NC(=O)[C@@H]1CCCN1C(=O)[C@@H](N)CCCNC(=N)N)C(=O)N[C@@H](Cc1ccccc1)C(=O)N[C@@H](CCSC)C(=O)N[C@@H](CO)C(=O)NCC(=O)O` [3102.0609] (H-RPLMIFMSG-OH) is 8-fold higher in IC50: 1.5 nM for the first, 12 nM for the second.

Going from `CC[C@H](C)[C@H](NC(=O)[C@H](CCC(N)=O)NC(=O)[C@H](CCC(=O)O)NC(=O)[C@H](Cc1ccccc1)NC(=O)[C@H](Cc1ccc(O)cc1)NC(=O)[C@H](CC(=O)O)NC(=O)[C@H](CCCNC(=N)N)NC(=O)[C@H](CC(C)C)NC(=O)[C@@H](N)CCC(=O)O)C(=O)O` [3102.0939] (H-ELRDYFEQI-OH) to `CSCC[C@H](NC(=O)[C@H](CCC(N)=O)NC(=O)[C@@H](N)CO)C(=O)N[C@@H](CCC(=O)O)C(=O)N[C@@H](CCCNC(=N)N)C(=O)N[C@@H](Cc1ccccc1)C(=O)N[C@@H](CC(N)=O)C(=O)N[C@@H](CS)C(=O)N[C@@H](CO)C(=O)O` [3102.0586] (H-SQMERFNCS-OH), the IC50 rises from 13 nM to 39 nM (3-fold).

Compared with `CSCC[C@H](NC(=O)[C@H](Cc1ccccc1)NC(=O)[C@@H](N)CC(C)C)C(=O)N[C@@H](CO)C(=O)N[C@@H](Cc1c[nH]cn1)C(=O)N[C@H](C(=O)N[C@@H](CCCCN)C(=O)N[C@@H](CO)C(=O)N[C@H](C(=O)O)C(C)C)C(C)C` [3102.0716] (H-LFMSHVKSV-OH), `CC[C@H](C)[C@H](NC(=O)[C@H](CCCNC(=N)N)NC(=O)[C@H](CCC(=O)O)NC(=O)[C@H](CCCCN)NC(=O)[C@H](CCSC)NC(=O)[C@@H](N)CC(C)C)C(=O)N[C@@H](CO)C(=O)N[C@@H](CO)C(=O)N[C@@H](CCC(=O)O)C(=O)O` [3102.0597] (H-LMKERISSE-OH) is 26-fold higher in IC50: 3.1 nM for the first, 82 nM for the second. The first is the more potent here.

Going from `CC[C@H](C)[C@H](NC(=O)[C@@H](NC(=O)[C@H](CO)NC(=O)[C@H](CCCNC(=N)N)NC(=O)[C@H](CCC(=O)O)NC(=O)[C@H](CCCCN)NC(=O)[C@H](CCSC)NC(=O)[C@@H](N)CCSC)[C@@H](C)O)C(=O)N[C@@H](CC(C)C)C(=O)O` [3102.0596] (H-MMKERSTIL-OH) to `CSCC[C@H](NC(=O)[C@@H](NC(=O)[C@H](CS)NC(=O)[C@H](CCCCN)NC(=O)[C@H](CCC(N)=O)NC(=O)[C@H](CC(C)C)NC(=O)[C@H](CCCCN)NC(=O)[C@H](CC(C)C)NC(=O)[C@@H](N)CCSC)C(C)C)C(=O)O` [3102.0611] (H-MLKLQKCVM-OH), the IC50 falls from 35 nM to 9.3 nM (3.8-fold).

Compared with `CC[C@H](C)[C@H](NC(=O)CNC(=O)[C@@H]1CCCN1C(=O)[C@@H](N)CO)C(=O)N[C@@H](CCCNC(=N)N)C(=O)N1CCC[C@H]1C(=O)N[C@@H](CCCNC(=N)N)C(=O)N[C@@H](Cc1ccccc1)C(=O)N[C@@H](CC(C)C)C(=O)O` [3102.0532] (H-SPGIRPRFL-OH), `CC[C@H](C)[C@H](NC(=O)[C@H](CCCCN)NC(=O)[C@@H]1CCCN1C(=O)[C@@H](N)CCC(=O)O)C(=O)N[C@@H](CO)C(=O)N[C@@H](CC(C)C)C(=O)N[C@@H](CC(C)C)C(=O)N1CCC[C@H]1C(=O)N[C@@H](CC(C)C)C(=O)O` [3102.0719] (H-EPKISLLPL-OH) is 6.6-fold lower in IC50: 56 nM for the first, 8.5 nM for the second.

Going from `CC[C@H](C)[C@H](NC(=O)[C@H](CC(=O)O)NC(=O)[C@H](CC(N)=O)NC(=O)[C@@H](NC(=O)[C@H](CCCCN)NC(=O)[C@@H](NC(=O)[C@H](CCCCN)NC(=O)[C@@H]1CCCN1C(=O)[C@@H](N)CCCNC(=N)N)[C@@H](C)CC)[C@@H](C)O)C(=O)O` [3102.0737] (H-RPKIKTNDI-OH) to `CC(C)C[C@H](NC(=O)[C@@H]1CCCN1C(=O)[C@H](CCCNC(=N)N)NC(=O)[C@H](Cc1ccccc1)NC(=O)[C@H](CCCCN)NC(=O)[C@H](CCCCN)NC(=O)[C@H](CCCNC(=N)N)NC(=O)[C@H](Cc1ccc(O)cc1)NC(=O)[C@@H](N)Cc1ccccc1)C(=O)O` [3102.0608] (H-FYRKKFRPL-OH), the IC50 falls from 2.1 nM to 0.088 nM (24-fold).
